Measurements taken from US20260355239A1, “COMBINATION OF A T CELL THERAPY AND CONTINUOUS OR INTERMITTENT DGK INHIBITOR DOSING” (Juno Therapeutics, Inc., priority 2022, published 2026).
Like-named read-outs stand apart in the source and are kept apart here.

Legend:
[1] = tested on: T cells; assay: T cell function and exhaustion of engineered T cells in presence of DGKi (summary of observations); format: cell-based, human
Excerpt: In some aspects, the provided methods enhance or modulate proliferation and/or activity of T cell activity associated with administration of the T cell therapy (e.g. CAR-expressing T cells).
Thus, while in some cases agents that increase or potentiate T cell activity may drive the cells to an exhausted state, it is found herein that activity of such DGKi, e.g., Compound 17, to exert a potentiating effect on T cell activity is decoupled from T cell exhaustion. In some embodiments, the provided methods involving compound administration of such DGKi, e.g., Compound 17, is capable of potentiating activity of T cells and delaying, limiting, reducing, inhibiting or preventing exhaustion.
These observations were made using a chronic stimulation assay to render T cells (e.g. CAR T cells) hypofunctional (e.g. reduced cytolysis and IL-2 secretion). Using this model, engineered T cells (e.g. CAR T cells or eTCR T cells) were examined to assess impact of DGKi, such as Compound 17, on function of the engineered T cells when present during (concurrent) or following (rescue) exposure to conditions leading to a hypofunctional, exhaustive state.

[2] = tested on: Raji-rFluc cells; assay: In vivo anti-tumor effect with lower CAR T cell dose, Raji-rFluc NSG mice (Example 7)
Description: The in vivo anti-tumor effects of a continuous Compound 17 dosing regimen in combination with a lower dose of CD19-directed CAR T cells were assessed.
These doses of CAR-expressing T cells were not expected to achieve complete tumor rejection.

[3] = tested on: Raji-rFluc cells
Description: For assessing in vivo anti-tumor effects, immunodeficient NSG mice were injected intravenously with 0.5×10^6 Raji-rFluc cells. […] This dose of CAR-expressing T cells was not expected to achieve complete tumor rejection.
For assessing tumor burden by bioluminescence imaging, mice received intraperitoneal injections of luciferin substrate resuspended in phosphate-buffered saline. Tumor burden and survival of treated mice were assessed until Day 50. In addition, flow cytometry for assessing circulating CAR T cell number and CD4 and CD8 expression was performed on Days 5, 12, 19, and 26. CAR expression was assessed using an anti-idiotypic (anti-ID) antibody specific for the CAR.

[4] = tested on: anti-CD19 CAR-T cells with K562.CD19, Granta-519 and Raji cells; assay: CAR-T cell cytokine production in co-culture (MSD); format: cell-based, human
[5] = tested on: CD19-antigen expressing target cells (K562.CD19, Granta-519, Raji); assay: CAR-T cell cytolytic function in co-culture; format: cell-based, human; settings: 2.5:1 effector:target, compound present during co-culture
Excerpt: T cell compositions containing T cells expressing an exemplary anti-CD19 CAR were generated from leukapheresis samples from two healthy human adult donors by a process that included immunoaffinity-based selection of T cells by separately selecting CD4+ and CD8+ cells from the samples, resulting in two compositions enriched for CD4+ and CD8+ cells, respectively, per donor. Cells of the enriched CD4+ and CD8+ compositions were separately activated with anti-CD3/anti-CD28 beads and subjected to lentiviral transduction with a vector encoding an anti-CD19 CAR. […]
Prior to use, the cryopreserved CD4+ and CD8+ CAR-engineered cell compositions were thawed and combined at approximately a 1:1 CD4:CD8 ratio for each donor to prepare a combined CD4+ CAR+ and CD8+ CAR+ T cell composition. The effects of treatment with Compound 17 at various concentrations (0.1 nM, 1 nM, 10 nM, 100 nM, or 1000 nM) added at day 0 during stimulation of the combined CAR-T cell composition with a plate-bound CAR-specific anti-idiotypic antibody (see, e.g., WO2018/023100) or during co-culture with CD19-expressing cells was then assessed.
The cytolytic function of T cells treated with Compound 17 was assessed following co-culture of the combined CAR-T cell composition with various CD19-expressing lymphoma cells at a 2.5:1 effector:target ratio in the presence of Compound 17. […]

[6] = tested on: anti-CD19 CAR-T cells with A549.CD19 and Granta-519 tumor spheroids; assay: Cytokine production of chronically stimulated, concurrently treated CAR-T cells, 3D spheroids; format: cell-based, human; settings: concurrent treatment during chronic stimulation, five days
Description: To simulate conditions of chronic stimulation, approximately 20,000 anti-CD19 CAR-expressing T cells of a combined CAR-T cell composition produced as described in Example 2 from two healthy adult donors were incubated with 30 µg/mL of plate-bound CAR-specific anti-idiotypic antibody (see, e.g., WO2018/023100) at 37 °C for a period of seven days. During this seven-day period, engineered CAR T cells were concurrently treated with Compound 17(0.1-1000 nM) or a vehicle control added at day 0.
To further assess activity of chronically stimulated cell, the chronically stimulated CAR-T cells that had been concurrently treated with DGKi were incubated with A549 CD19+ tumor spheroids or Granta-519 tumor spheroids to rechallenge the CAR-T cells at an effector to target ratio of 1:2 for up to 14 days. The tumor spheroids were engineered to express a red fluorescent dye to permit monitoring of tumor cell lysis by microscopy during the assay.
Supernatant was collected at day 5 from the above tumor spheroid cultures with chronically stimulated CAR-expressing T cells. Cytokine production was measured from the supernatant by meso scale discovery (MSD) analysis of the collected cell supernatants. […] Duplicate values for cell compositions manufactured from the two different healthy donors are shown.

[7] = 0.3 or 0.6 mg/kg oral once daily Days 1-30 with 0.5×10^6 or 1×10^6 CAR T cells, vs CAR T cells alone
[8] = Compound 17: 0.3 mg/kg oral once daily Days 1-30 with CAR T cells, or KO CAR T cells
[9] = Compound 17: 0.3 mg/kg oral once daily Days 1-30 with CAR T cells, or KO CAR T cells, vs CAR T cells without DGK KO alone

For `CC[C@H]1CN([C@@H](CC)c2ccc(C(F)(F)F)cc2)[C@H](CC)CN1c1nc(=O)n(C)c2ccc(C#N)nc12` [Compound 17, 4-((2S,5R)-2,5-diethyl-4-((S)-1-(4-(trifluoromethyl)phenyl)propyl)piperazin-1-yl)-1-methyl-2-oxo-1,2-dihydropyrido[3,2-d]pyrimidine-6-carbonitrile], the “T cell function (cytokine production, cytotoxicity, expansion, proliferation, persistence)” value [1] was “improves T cell function”, the “effect on T cell exhaustion” value ([1]; chronic (long-term) stimulation) was “reverse, delay, or prevent T cell exhaustion” and the “CAR T cell expansion and/or persistence” value ([2]; 0.3 or 0.6 mg/kg oral once daily Days 1-30, all groups) was “increased CAR T cell expansion and/or persistence in all groups”. For the same compound, the survival [2, 7] was “improved survival in all groups”, the tumor burden [2, 7] was “lowered tumor burden” and the “tumor suppression (tumor control index)” value [2, 7] was “enhanced tumor suppression in all groups”. For the same compound, the “CAR T cell expansion, lower CAR T cell dose” value ([2]; 0.5×10^6 CAR T cells + 0.3 mg/kg, relative to higher CAR T cell dose in combination with Compound 17) was “CAR T cell expansion was delayed”, the “circulating CAR T cell counts, lower CAR T cell dose” value ([2]; 0.5×10^6 CAR T cells + 0.3 mg/kg, vs higher CAR T cell dose alone) was “later exceeded circulating CAR T cell counts for the group that received the higher CAR T cell dose alone” and the “CAR T cell expansion and/or persistence” value [3, 8] was “improved CAR T cell expansion and/or persistence”. The tumor burden [3, 8] was “tumor burden was reduced”, the “anti-tumor efficacy (tumor control index)” value [3, 9] was “improved anti-tumor efficacy” and the survival [3, 9] was “improved survival”. For the same compound, the “tumor burden, survival, and CAR T cell expansion and/or persistence vs DGKα/ζ dual KO CAR T cells” value ([3]; continuous DGKi administration with CAR T cells) was “comparable to those achieved with administration of DGKα/ζ dual KO CAR T cells”, the “production of IFNγ, IL-2 and TNFα” value ([4]; 48 h co-culture with K562.CD19, Granta-519, Raji) was “dose-dependent increase in production of all three cytokines” and the “cytokine production, particularly IL-2, greatest effect” value ([4]; higher concentrations of Compound 17, Granta-519 cells (low CD19)) was “greatest effect during co-culture with Granta-519 cells”. For the same compound, the “cytolytic function (specific lysis)” value [5] was “did not affect cytolytic function” and the “production of IFNγ, IL-2 and TNFα” value [6] was “dose-dependent increase in production of all three cytokines”.
